Measurements: PubChem BioAssay AID248 (DTP/NCI, 2004)
“And” between values parts separate entries of the source, which are not always exact repeats. Identical values can stand only once. Inconclusive results and toxic doses are left out. No stated cut-off is given here; in the data, active means T/C of 150% or more; inactive means T/C below 125%.

System: L1210 leukemia ip in BDF1 mice, survival T/C
Test: NCI In Vivo Anticancer Drug Screen. Data for tumor model L1210 Leukemia (intraperitoneal) in B6D2F1 (BDF1) mice
Details: endpoint: mean survival time, higher = longer survival
How it was run: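 Tumor cells were implanted, animals were treated, and survival was followed. The result divides the treated measurement by the vehicle-control measurement.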

[1] = dose: 100.0 mg/kg/injection, schedule: Q01DX001 (ip), vehicle: carboxymethylcellulose (CMC)
[2] = dose: 200.0 mg/kg/injection, schedule: Q01DX001 (ip), vehicle: carboxymethylcellulose (CMC)
[3] = dose: 400.0 mg/kg/injection, schedule: Q01DX001 (ip), vehicle: carboxymethylcellulose (CMC)
[4] = dose: 100.0 mg/kg/injection, schedule: Q01DX009 (ip), vehicle: saline
[5] = dose: 200.0 mg/kg/injection, schedule: Q01DX009 (ip), vehicle: saline
[6] = dose: 400.0 mg/kg/injection, schedule: Q01DX009 (ip), vehicle: saline
[7] = dose: 100.0 mg/kg/injection, schedule: Q01DX009 (ip), vehicle: Klucel (hydroxypropylcellulose) (HPC)
[8] = dose: 100.0 mg/kg/injection, schedule: Q04DX003 (ip), vehicle: Klucel (hydroxypropylcellulose) (HPC)
[9] = dose: 200.0 mg/kg/injection, schedule: Q01DX009 (ip), vehicle: Klucel (hydroxypropylcellulose) (HPC)
[10] = dose: 400.0 mg/kg/injection, schedule: Q01DX009 (ip), vehicle: Klucel (hydroxypropylcellulose) (HPC)
[11] = dose: 100.0 mg/kg/injection, schedule: Q04DX003 (ip), vehicle: saline with Tween-80
[12] = dose: 50.0 mg/kg/injection, schedule: Q01DX001 (ip), vehicle: carboxymethylcellulose (CMC)
[13] = dose: 100.0 mg/kg/injection, schedule: Q01DX001 (ip), vehicle: saline
[14] = dose: 200.0 mg/kg/injection, schedule: Q01DX001 (ip), vehicle: saline
[15] = dose: 400.0 mg/kg/injection, schedule: Q01DX001 (ip), vehicle: saline
[16] = dose: 100.0 mg/kg/injection, schedule: Q04DX003 (ip), vehicle: saline
[17] = dose: 200.0 mg/kg/injection, schedule: Q04DX003 (ip), vehicle: saline
[18] = dose: 400.0 mg/kg/injection, schedule: Q04DX003 (ip), vehicle: saline

Measured: T/C

CCC(Cl)COP(=O)(OCC(Cl)CC)C(CC)CCl (centres undefined)
inactive: [1] 93 % of control | dose: 100.0 mg/kg/injection, schedule: Q01DX009 (ip), vehicle: carboxymethylcellulose (CMC) 98 % of control and 91 % of control | dose: 100.0 mg/kg/injection, schedule: Q04DX002 (ip), vehicle: carboxymethylcellulose (CMC) 94 % of control and 95 % of control | dose: 100.0 mg/kg/injection, schedule: Q04DX003 (ip), vehicle: carboxymethylcellulose (CMC) 101 % of control | [2] 96 % of control | dose: 200.0 mg/kg/injection, schedule: Q01DX009 (ip), vehicle: carboxymethylcellulose (CMC) 94 % of control and 103 % of control | dose: 200.0 mg/kg/injection, schedule: Q04DX002 (ip), vehicle: carboxymethylcellulose (CMC) 95 % of control and 102 % of control | dose: 200.0 mg/kg/injection, schedule: Q04DX003 (ip), vehicle: carboxymethylcellulose (CMC) 96 % of control | [3] 96 % of control | dose: 400.0 mg/kg/injection, schedule: Q01DX009 (ip), vehicle: carboxymethylcellulose (CMC) 105 % of control and 106 % of control | dose: 400.0 mg/kg/injection, schedule: Q04DX002 (ip), vehicle: carboxymethylcellulose (CMC) 94 % of control and 95 % of control | dose: 400.0 mg/kg/injection, schedule: Q04DX003 (ip), vehicle: carboxymethylcellulose (CMC) 98 % of control

COc1ccc(C2(SCC(N)C(=O)O)c3ccccc3-c3ccccc32)cc1 (centres undefined)
inactive: dose: 25.0 mg/kg/injection, schedule: Q01DX009 (ip), vehicle: saline 101 % of control | dose: 50.0 mg/kg/injection, schedule: Q01DX009 (ip), vehicle: saline 98 % of control | [4] 95 % of control | [5] 93 % of control | dose: 300.0 mg/kg/injection, schedule: Q01DX009 (ip), vehicle: saline 98 % of control | [6] 102 % of control

Clc1nnc(NC2CCCCC2)c(Cl)c1Cl
inactive: [7] 102 % of control | [8] 91 % of control | [9] 102 % of control | dose: 200.0 mg/kg/injection, schedule: Q04DX003 (ip), vehicle: Klucel (hydroxypropylcellulose) (HPC) 91 % of control | [10] 110 % of control | dose: 400.0 mg/kg/injection, schedule: Q04DX003 (ip), vehicle: Klucel (hydroxypropylcellulose) (HPC) 92 % of control

Nc1nc(N)c2nnsc2n1
inactive: dose: 100.0 mg/kg/injection, schedule: Q01DX001 (ip), vehicle: saline with Tween-80 101 % of control | dose: 200.0 mg/kg/injection, schedule: Q01DX001 (ip), vehicle: saline with Tween-80 96 % of control | dose: 400.0 mg/kg/injection, schedule: Q01DX001 (ip), vehicle: saline with Tween-80 90 % of control

CC(C)(C)C(=O)Nc1ccc(F)cc1
inactive: [7] 110 % of control | [9] 94 % of control | [10] 116 % of control

NC(=S)c1ccc(S(=O)(=O)Nc2cccc(Br)c2)cc1
inactive: [11] 103 % of control | dose: 200.0 mg/kg/injection, schedule: Q04DX003 (ip), vehicle: saline with Tween-80 103 % of control | dose: 400.0 mg/kg/injection, schedule: Q04DX003 (ip), vehicle: saline with Tween-80 97 % of control

CC1(C)C2CCC(OC(=O)c3ccc([N+](=O)[O-])cc3)C1C2 (centres undefined)
inactive: [12] 102 % of control | [1] 102 % of control | [2] 93 % of control | [3] 87 % of control

O=C1NC(c2ccc(F)cc2)OC1C(=O)c1ccccc1 (centres undefined)
inactive: [13] 104 % of control | [14] 110 % of control | [15] 104 % of control

CN(CC(C)(C)C(O)c1ccccc1)C(=O)c1ccccc1 (centres undefined)
inactive: [16] 102 % of control | [17] 100 % of control | [18] 96 % of control

CCOC(=O)C1CC2(c3ccccc3)C(c3ccccc3)=C(c3ccccc3)C1(c1ccccc1)C2O (centres undefined)
inactive: [12] 94 % of control | [1] 94 % of control | [2] 103 % of control | [3] 94 % of control

CCSCN1CCN(CSCC)C(C)C1 (centres undefined)
inactive: [13] 104 % of control | [14] 106 % of control | [15] 112 % of control

Clc1nc2nc[nH]c2nc1Cl
inactive: dose: 25.0 mg/kg/injection, schedule: Q04DX003 (ip), vehicle: saline with Tween-80 98 % of control | dose: 50.0 mg/kg/injection, schedule: Q04DX003 (ip), vehicle: saline with Tween-80 104 % of control | [8] 92 % of control | [11] 86 % of control

OCC(Cl)(Cl)Cl
inactive: [16] 104 % of control | [17] 96 % of control | [18] 107 % of control

COc1ccc(Cl)cc1NS(=O)(=O)c1ccc(Cl)cc1[N+](=O)[O-]
inactive: [4] 96 % of control | [5] 94 % of control | [6] 100 % of control

CCOC(=O)C12CCC(CC1)C(C(=O)O)C2C(=O)O (centres undefined)
inactive: dose: 75.0 mg/kg/injection, schedule: Q04DX002 (ip), vehicle: saline with Tween-80 99 % of control | dose: 150.0 mg/kg/injection, schedule: Q04DX002 (ip), vehicle: saline with Tween-80 89 % of control | dose: 300.0 mg/kg/injection, schedule: Q04DX002 (ip), vehicle: saline with Tween-80 92 % of control

CN(C)c1ccc(/C=C/C(=O)Cc2ccccc2)cc1
inactive: dose: 1.56 mg/kg/injection, schedule: Q04DX002 (ip), vehicle: saline with Tween-80 109 % of control | dose: 3.13 mg/kg/injection, schedule: Q04DX002 (ip), vehicle: saline with Tween-80 103 % of control | dose: 6.25 mg/kg/injection, schedule: Q04DX002 (ip), vehicle: saline with Tween-80 98 % of control | dose: 12.5 mg/kg/injection, schedule: Q04DX002 (ip), vehicle: saline with Tween-80 95 % of control and 98 % of control | dose: 50.0 mg/kg/injection, schedule: Q04DX002 (ip), vehicle: saline with Tween-80 104 % of control | dose: 100.0 mg/kg/injection, schedule: Q04DX002 (ip), vehicle: saline with Tween-80 88 % of control
